This is an account of results in patent US7459451B2, “Pyrazolopyridine derivatives” (Astellas Pharma Inc., priority 2004, dated 2008).

For orientation: melting point means the temperature of the solid-liquid transition.

With `CCOC(=O)c1c(C)nc2c(cnn2CC)c1-c1ccnc(Cl)c1` [Example 3, Ethyl 4-(2-chloro-4-pyridyl)-1-ethyl-6-methyl-1H-pyrazolo[3,4-b]pyridine-5-carboxylate], the melting point was in the range of 109 to 110 °C.

For `CCn1ncc2c(-c3cncc(C)c3)c(C(=O)NCc3ccc(OC)cc3)c(-c3ccccc3)nc21` [Example 65, 1-ethyl-N-(4-methoxybenzyl)-4-(5-methyl-3-pyridyl)-6-phenyl-1H-pyrazolo[3,4-b]pyridine-5-carboxamide], the melting point is 203 to 204 °C.

In turn, `CCn1ncc2c(-c3cncc(C)c3)c(C(=O)NC3Cc4ccccc4C3)c(-c3ccccc3)nc21` [Example 66, N-(2,3-Dihydro-1H-inden-2-yl)-1-ethyl-4-(5-methyl-3-pyridyl)-6-phenyl-1H-pyrazolo[3,4-b]pyridine-5-carboxamide] returned a melting point of 269 to 270 °C.

In the case of `CCn1ncc2c(-c3cncc(C)c3)c(C#N)c(C)nc21` [Example 74, 1-Ethyl-6-methyl-4-(5-methyl-3-pyridyl)-1H-pyrazolo[3,4-b]pyridine-5-carbonitrile], the melting point is 160 to 161 °C.

Compound `CCn1ncc2c(-c3cncc(C)c3)c(CCC(=O)O)c(-c3ocnc3C)nc21` [Example 79, 3-[1-ethyl-6-(4-methyl-1,3-oxazol-5-yl)-4-(5-methyl-3-pyridyl)-1H-pyrazolo[3,4-b]pyridin-5-yl]propanoic acid] registered a melting point of 184 to 185.5 °C.

In turn, `CCn1ncc2c(-c3cncc(C)c3)c(/C=C/C(=O)O)c(COC)nc21` [Example 82, (2E)-3-[1-ethyl-6-(methoxymethyl)-4-(5-methyl-3-pyridyl)-1H-pyrazolo[3,4-b]pyridin-5-yl]acrylic acid] came in with a melting point of 195 to 196 °C.

The compound `CCn1ncc2c(-c3cncc(C)c3)c(/C=C/C(=O)O)c(C)nc21` [Example 85, (2E)-3-[1-Ethyl-6-methyl-4-(5-methyl-3-pyridyl)-1H-pyrazolo[3,4-b]pyridin-5-yl]acrylic acid] came in with a melting point of 239 to 241 °C.

On to `CCn1ncc2c(-c3cncc(Br)c3)c(C(=O)O)c(COC)nc21` [Example 86, 4-(5-Bromo-3-pyridyl)-1-ethyl-6-(methoxymethyl)-1H-pyrazolo[3,4-b]pyridine-5-carboxylic acid], for which the melting point was in the range of 162 to 163 °C.

`CCn1ncc2c(-c3cncc(C)c3)c(/C=C/C(=O)O)c(COCC3CC3)nc21` [Example 87, (2E)-3-[6-[(Cyclopropylmethoxy)methyl]-1-ethyl-4-(5-methyl-3-pyridyl)-1H-pyrazolo[3,4-b]pyridin-5-yl]acrylic acid] displayed a melting point of 187 to 189 °C.

As to `CCn1ncc2c(-c3cncc(Br)c3)c(/C=C/C(=O)O)c(COCC3CC3)nc21` [Example 88, (2E)-3-{4-(5-Bromo-3-pyridyl)-6-[(cyclopropylmethoxy)methyl]-1-ethyl-1H-pyrazolo[3,4-b]pyridin-5-yl}acrylic acid], the melting point was in the range of 183 to 184 °C.

Compound `Cc1cncc(-c2c(/C=C/C(=O)O)c(C)nc3c2cnn3C)c1` [Example 90, (2E)-3-[1,6-Dimethyl-4-(5-methyl-3-pyridyl)-1H-pyrazolo[3,4-b]pyridin-5-yl]acrylic acid] came in with a melting point of 269 to 272 °C.

Compound `CCn1ncc2c(-c3cncc(C)c3)c(CCC(=O)O)c(COC)nc21` [Example 92, 3-[1-Ethyl-6-(methoxymethyl)-4-(5-methyl-3-pyridyl)-1H-pyrazolo[3,4-b]pyridin-5-yl]propanoic acid] registered a melting point of 154 to 155 °C.

`CCn1ncc2c(-c3cncc(Br)c3)c(CCC(=O)O)c(C)nc21` [Example 93, 3-[4-(5-Bromo-3-pyridyl)-1-ethyl-6-methyl-1H-pyrazolo[3,4-b]pyridin-5-yl]propanoic acid] showed a melting point of 178 to 179.5 °C.

Consider `CCn1ncc2c(-c3cncc(C)c3)c(CCC(=O)O)c(C)nc21` [Example 94, 3-[1-Ethyl-6-methyl-4-(5-methyl-3-pyridyl)-1H-pyrazolo[3,4-b]pyridin-5-yl]propanoic acid], for which the melting point lay in the range of 179 to 181 °C.

`CCn1ncc2c(-c3cncc(C)c3)c(CCC(=O)O)c(COCC3CCCCC3)nc21` [Example 96, 3-[6-[(Cyclohexylmethoxy)methyl]-1-ethyl-4-(5-methyl-3-pyridyl)-1H-pyrazolo[3,4-b]pyridin-5-yl]propanoic acid] yielded a melting point of 183 to 184 °C.

In the case of `Cc1cncc(-c2c(CCC(=O)O)c(C)nc3c2cnn3C)c1` [Example 97, 3-[1,6-Dimethyl-4-(5-methyl-3-pyridyl)-1H-pyrazolo[3,4-b]pyridin-5-yl]propanoic acid], the melting point is 205 to 207 °C.

In the case of `CCn1ncc2c(-c3cncc(C)c3)c(CCC(=O)O)c(-c3ccccc3)nc21` [Example 98, 3-[1-Ethyl-4-(5-methyl-3-pyridyl)-6-phenyl-1H-pyrazolo[3,4-b]pyridin-5-yl]propanoic acid], the melting point lay in the range of 235 to 237 °C.

As for `CCn1ncc2c(-c3cncc(C)c3)c(CCC(=O)O)c(C#N)nc21` [Example 100, 3-[6-Cyano-1-ethyl-4-(5-methyl-3-pyridyl)-1H-pyrazolo[3,4-b]pyridin-5-yl]propanoic acid], the melting point is 209 to 210 °C.

`CCn1ncc2c(-c3cncc(C)c3)c(/C=C/C(=O)O)c(C3CCCCC3)nc21` [Example 190, (2E)-3-[6-Cyclohexyl-1-ethyl-4-(5-methyl-3-pyridyl)-1H-pyrazolo[3,4-b]pyridin-5-yl]acrylic acid]: the melting point lay within 255 to 257 °C.

In the case of `CCn1ncc2c(-c3cccc(Cl)c3)c(/C=C/C(=O)O)c(COC)nc21` [Example 191, (2E)-3-[4-(3-Chlorophenyl)-1-ethyl-6-(methoxymethyl)-1H-pyrazolo[3,4-b]pyridin-5-yl]acrylic acid], the melting point is 234 to 235 °C.

Consider `CCn1ncc2c(-c3cncc(C)c3)c(CCC(=O)O)c(C(C)C)nc21` [Example 194, 3-[1-Ethyl-6-isopropyl-4-(5-methyl-3-pyridyl)-1H-pyrazolo[3,4-b]pyridin-5-yl]propanoic acid], for which the melting point was 203 to 205 °C.

`CCC(CC)c1nc2c(cnn2CC)c(-c2cncc(C)c2)c1/C=C/C(=O)O` [Example 201, (2E)-3-[1-Ethyl-6-(1-ethylpropyl)-4-(5-methyl-3-pyridyl)-1H-pyrazolo[3,4-b]pyridin-5-yl]acrylic acid] gave a melting point of 197 to 199 °C.

Take `CCn1ncc2c(-c3ccnc(Cl)c3)c(/C=C/C(=O)O)c(-c3ccccc3)nc21` [Example 204, (2E)-3-[4-(2-Chloro-4-pyridyl)-1-ethyl-6-phenyl-1H-pyrazolo[3,4-b]pyridin-5-yl]acrylic acid]: the melting point was over 250 °C.

As for `CCn1ncc2c(CC3CCCCC3)c(/C=C/C(=O)O)c(-c3ccccc3)nc21` [Example 206, (2E)-3-[4-(Cyclohexylmethyl)-1-ethyl-6-phenyl-1H-pyrazolo[3,4-b]pyridin-5-yl]acrylic acid], the melting point is 201 to 202 °C.

On to `CCn1ncc2c(-c3ccc(Cl)s3)c(/C=C/C(=O)O)c(-c3ccccc3)nc21` [Example 207, (2E)-3-[4-(5-Chloro-2-thienyl)-1-ethyl-6-phenyl-1H-pyrazolo[3,4-b]pyridin-5-yl]acrylic acid], for which the melting point was in the range of 187 to 188 °C.

With `CCn1ncc2c(-c3ccc(Cl)nc3)c(/C=C/C(=O)O)c(-c3ccccc3)nc21` [Example 208, (2E)-3-[4-(6-Chloro-3-pyridyl)-1-ethyl-6-phenyl-1H-pyrazolo[3,4-b]pyridin-5-yl]acrylic acid], the melting point is 255 to 258 °C.

As for `CCn1ncc2c(-c3ccccc3)c(/C=C/C(=O)O)c(-c3ccccc3)nc21` [Example 211, (2E)-3-(1-Ethyl-4,6-diphenyl-1H-pyrazolo[3,4-b]pyridin-5-yl)acrylic acid], the melting point is over 250 °C.

The compound `CCn1ncc2c(-c3cncc(C)c3)c(/C=C/C(=O)O)c(C(C)C)nc21` [Example 212, (2E)-3-[1-Ethyl-6-isopropyl-4-(5-methyl-3-pyridyl)-1H-pyrazolo[3,4-b]pyridin-5-yl]acrylic acid] came in with a melting point of 247 to 248 °C.

Regarding `CCn1ncc2c(-c3cncc(Cl)c3)c(/C=C/C(=O)O)c(-c3ccccc3)nc21` [Example 213, (2E)-3-[4-(5-Chloro-3-pyridyl)-1-ethyl-6-phenyl-1H-pyrazolo[3,4-b]pyridin-5-yl]acrylic acid], the melting point was 242 to 244 °C.

Regarding `CCn1ncc2c(-c3cncc(C)c3)c(/C=C/C(=O)O)c(C3CC3)nc21` [Example 214, (2E)-3-[6-Cyclopropyl-1-ethyl-4-(5-methyl-3-pyridyl)-1H-pyrazolo[3,4-b]pyridin-5-yl]acrylic acid], the melting point lay in the range of 221 to 222 °C.

Turning to `CCn1ncc2c(-c3cncc(C)c3)c(/C=C/C(=O)O)c(CC(C)C)nc21` [Example 215, (2E)-3-[1-Ethyl-6-isobutyl-4-(5-methyl-3-pyridyl)-1H-pyrazolo[3,4-b]pyridin-5-yl]acrylic acid], the melting point lay in the range of 212 to 213 °C.

Consider `CCn1ncc2c(-c3cncc(OC)c3)c(/C=C/C(=O)O)c(-c3ccccc3)nc21` [Example 218, (2E)-3-[1-Ethyl-4-(5-methoxy-3-pyridyl)-6-phenyl-1H-pyrazolo[3,4-b]pyridin-5-yl]acrylic acid], for which the melting point lay in the range of 253 to 254 °C.

`CCn1ncc2c(-c3ccc(Cl)s3)c(/C=C/C(=O)O)c(C(C)C)nc21` [Example 224, (2E)-3-[4-(5-Chloro-2-thienyl)-1-ethyl-6-isopropyl-1H-pyrazolo[3,4-b]pyridin-5-yl]acrylic acid] had a melting point of 163 to 165 °C.

`CCn1ncc2c(-c3cncc(Br)c3)c(/C=C/C(=O)O)c(C(C)C)nc21` [Example 225, (2E)-3-[4-(5-Bromo-3-pyridyl)-1-ethyl-6-isopropyl-1H-pyrazolo[3,4-b]pyridin-5-yl]acrylic acid] displayed a melting point of 234 to 235 °C.

The compound `CCn1ncc2c(-c3cncc(Br)c3)c(/C=C/C(=O)O)c(COC)nc21` [Example 226, (2E)-3-[4-(5-Bromo-3-pyridyl)-1-ethyl-6-(methoxymethyl)-1H-pyrazolo[3,4-b]pyridin-5-yl]acrylic acid] returned a melting point of 180 to 182 °C.
